Measurements: patent US9809578B2, “Pyrazolyl urea, thiourea, guanidine and cyanoguanidine compounds as trkA kinase inhibitors” (Array BioPharma Inc., priority 2012, dated 2017)

Legend:
Assay type in all cases: biochemical
Conditions in all cases: 10 μM, ATP near Km
ARK5 = target: T1, ARK5 (Homo sapiens, UniProt O60285); assay: KinaseProfiler ARK5
T1 construct: purchased Millipore (KinaseProfiler service)
Text: (§1) The compound was run in duplicate at a concentration of ATP near the Km for each individual kinase according to Millipore's specifications.

BLK_m = target: T2, BLK_m (Mus musculus, UniProt P16277); assay: KinaseProfiler BLK_m
T2 construct: purchased Millipore (KinaseProfiler service)
Text: as §1

Bmx = target: T3, Bmx (Homo sapiens, UniProt P51813); assay: KinaseProfiler Bmx
T3 construct: purchased Millipore (KinaseProfiler service)
Text: as §1

CDK5/p25 = target: T4, CDK5/p25 (Homo sapiens, UniProt Q00535); assay: KinaseProfiler CDK5/p25
T4 construct: purchased Millipore, Inc. (KinaseProfiler service)
Text: as §1

CHK2 = target: T5, CHK2 (Homo sapiens, UniProt O96017); assay: KinaseProfiler CHK2
T5 construct: purchased Millipore, Inc. (KinaseProfiler service)
Text: as §1

CK1delta = target: T6, CK1delta (Homo sapiens, UniProt P48730); assay: KinaseProfiler CK1delta
T6 construct: purchased Millipore, Inc. (KinaseProfiler service)
T6 sequence (P48730 whole entry): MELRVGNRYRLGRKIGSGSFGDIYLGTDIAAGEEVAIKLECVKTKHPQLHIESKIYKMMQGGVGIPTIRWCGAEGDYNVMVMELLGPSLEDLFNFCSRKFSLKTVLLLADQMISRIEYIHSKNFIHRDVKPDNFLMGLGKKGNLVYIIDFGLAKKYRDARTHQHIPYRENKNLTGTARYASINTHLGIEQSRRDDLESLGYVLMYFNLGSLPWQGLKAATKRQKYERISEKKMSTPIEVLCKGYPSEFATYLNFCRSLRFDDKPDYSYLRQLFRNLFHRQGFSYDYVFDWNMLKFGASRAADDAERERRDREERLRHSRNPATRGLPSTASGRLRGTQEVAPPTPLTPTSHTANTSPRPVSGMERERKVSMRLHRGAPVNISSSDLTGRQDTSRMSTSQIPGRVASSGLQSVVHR
Text: as §1

CK1gamma1 = target: T7, CK1gamma1 (Homo sapiens, UniProt Q9HCP0); assay: KinaseProfiler CK1gamma1
T7 construct: purchased Millipore, Inc. (KinaseProfiler service)
T7 sequence (Q9HCP0 whole entry): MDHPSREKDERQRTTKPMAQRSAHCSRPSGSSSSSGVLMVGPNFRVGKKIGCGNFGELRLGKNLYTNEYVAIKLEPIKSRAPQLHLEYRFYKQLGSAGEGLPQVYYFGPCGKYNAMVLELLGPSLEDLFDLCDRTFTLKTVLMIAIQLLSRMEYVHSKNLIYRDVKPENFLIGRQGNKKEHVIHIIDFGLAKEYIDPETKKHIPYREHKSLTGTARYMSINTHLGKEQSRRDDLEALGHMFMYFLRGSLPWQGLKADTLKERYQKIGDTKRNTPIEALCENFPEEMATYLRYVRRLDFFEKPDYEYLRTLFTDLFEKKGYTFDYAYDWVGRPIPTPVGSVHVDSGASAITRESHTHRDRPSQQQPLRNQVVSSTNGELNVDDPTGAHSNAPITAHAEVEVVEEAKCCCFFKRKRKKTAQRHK
Text: as §1

CLK3 = target: T8, CLK3 (Homo sapiens, UniProt P49761); assay: KinaseProfiler CLK3
T8 construct: purchased Millipore, Inc. (KinaseProfiler service)
Text: as §1

c-RAF = target: T9, c-RAF (Homo sapiens, UniProt P04049, Y340D/Y341D); assay: KinaseProfiler c-RAF
T9 construct: purchased Millipore, Inc. (KinaseProfiler service)
Text: as §1

DYRK2 = target: T10, DYRK2 (Homo sapiens, UniProt Q92630); assay: KinaseProfiler DYRK2
T10 construct: purchased Millipore, Inc. (KinaseProfiler service)
Text: as §1

EphA1 = target: T11, EphA1 (Homo sapiens, UniProt P21709); assay: KinaseProfiler EphA1
T11 construct: purchased Millipore, Inc. (KinaseProfiler service)
Text: as §1

EphA2 = target: T12, EphA2 (Homo sapiens, UniProt P29317); assay: KinaseProfiler EphA2
T12 construct: purchased Millipore, Inc. (KinaseProfiler service)
Text: as §1

Fer = target: T13, Fer (Homo sapiens, UniProt P16591); assay: KinaseProfiler Fer
T13 construct: purchased Millipore, Inc. (KinaseProfiler service)
Text: as §1

Fes = target: T14, Fes (Homo sapiens, UniProt P07332); assay: KinaseProfiler Fes
T14 construct: purchased Millipore, Inc. (KinaseProfiler service)
Text: as §1

FGFR4 = target: T15, FGFR4 (Homo sapiens, UniProt P22455); assay: KinaseProfiler FGFR4
T15 construct: purchased Millipore, Inc. (KinaseProfiler service)
Text: as §1

Fgr = target: T16, Fgr (Homo sapiens, UniProt P09769); assay: KinaseProfiler Fgr
T16 construct: purchased Millipore, Inc. (KinaseProfiler service)
Text: as §1

GRK5 = target: T17, GRK5 (Homo sapiens, UniProt P34947); assay: KinaseProfiler GRK5
T17 construct: purchased Millipore, Inc. (KinaseProfiler service)
Text: as §1

GSK3alpha = target: T18, GSK3alpha (Homo sapiens, UniProt P49840); assay: KinaseProfiler GSK3alpha
T18 construct: purchased Millipore, Inc. (KinaseProfiler service)
Text: as §1

HIPK3 = target: T19, HIPK3 (Homo sapiens, UniProt Q9H422); assay: KinaseProfiler HIPK3
T19 construct: purchased Millipore, Inc. (KinaseProfiler service)
T19 sequence (Q9H422 whole entry): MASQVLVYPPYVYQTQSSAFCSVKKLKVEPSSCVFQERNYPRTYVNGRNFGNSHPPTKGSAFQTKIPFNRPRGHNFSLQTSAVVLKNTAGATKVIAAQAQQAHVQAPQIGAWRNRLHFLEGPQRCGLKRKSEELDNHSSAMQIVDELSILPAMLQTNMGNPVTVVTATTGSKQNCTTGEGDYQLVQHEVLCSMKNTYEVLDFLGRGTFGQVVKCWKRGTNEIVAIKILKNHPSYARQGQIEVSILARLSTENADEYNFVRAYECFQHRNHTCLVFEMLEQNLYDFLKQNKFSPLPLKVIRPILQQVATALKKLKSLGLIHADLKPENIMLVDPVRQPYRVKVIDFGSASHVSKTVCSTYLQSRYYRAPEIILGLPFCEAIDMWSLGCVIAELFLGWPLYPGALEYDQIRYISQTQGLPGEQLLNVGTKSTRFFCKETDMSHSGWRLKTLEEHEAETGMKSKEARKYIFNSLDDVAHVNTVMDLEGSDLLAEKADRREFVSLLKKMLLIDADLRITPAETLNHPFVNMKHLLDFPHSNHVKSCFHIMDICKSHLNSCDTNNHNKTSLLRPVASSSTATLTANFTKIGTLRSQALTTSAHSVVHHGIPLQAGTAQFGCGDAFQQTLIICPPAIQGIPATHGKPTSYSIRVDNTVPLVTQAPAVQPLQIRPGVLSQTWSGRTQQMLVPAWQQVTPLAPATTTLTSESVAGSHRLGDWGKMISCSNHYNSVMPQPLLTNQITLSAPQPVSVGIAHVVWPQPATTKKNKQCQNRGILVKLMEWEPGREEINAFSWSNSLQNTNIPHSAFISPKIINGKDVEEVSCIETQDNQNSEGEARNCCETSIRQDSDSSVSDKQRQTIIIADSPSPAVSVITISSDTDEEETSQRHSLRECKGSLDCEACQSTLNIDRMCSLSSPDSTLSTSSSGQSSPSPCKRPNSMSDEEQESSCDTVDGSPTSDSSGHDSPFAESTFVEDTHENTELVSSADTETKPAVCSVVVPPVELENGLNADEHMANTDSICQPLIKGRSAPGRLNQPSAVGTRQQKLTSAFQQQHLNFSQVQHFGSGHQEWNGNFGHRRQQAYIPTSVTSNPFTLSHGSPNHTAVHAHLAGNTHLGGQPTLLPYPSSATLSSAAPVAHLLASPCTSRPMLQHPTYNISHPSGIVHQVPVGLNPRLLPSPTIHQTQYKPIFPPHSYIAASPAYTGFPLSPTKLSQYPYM
Text: as §1

IR = target: T20, IR (Homo sapiens, UniProt P06213); assay: KinaseProfiler IR
T20 construct: purchased Millipore, Inc. (KinaseProfiler service)
Text: as §1

IRR = target: T21, IRR (Homo sapiens, UniProt P14616); assay: KinaseProfiler IRR
T21 construct: purchased Millipore, Inc. (KinaseProfiler service)
Text: as §1

JNK1alpha1 = target: T22, JNK1alpha1 (Homo sapiens, UniProt P45983); assay: KinaseProfiler JNK1alpha1
T22 construct: purchased Millipore, Inc. (KinaseProfiler service)
T22 sequence (P45983 1-384 isoform P45983-2): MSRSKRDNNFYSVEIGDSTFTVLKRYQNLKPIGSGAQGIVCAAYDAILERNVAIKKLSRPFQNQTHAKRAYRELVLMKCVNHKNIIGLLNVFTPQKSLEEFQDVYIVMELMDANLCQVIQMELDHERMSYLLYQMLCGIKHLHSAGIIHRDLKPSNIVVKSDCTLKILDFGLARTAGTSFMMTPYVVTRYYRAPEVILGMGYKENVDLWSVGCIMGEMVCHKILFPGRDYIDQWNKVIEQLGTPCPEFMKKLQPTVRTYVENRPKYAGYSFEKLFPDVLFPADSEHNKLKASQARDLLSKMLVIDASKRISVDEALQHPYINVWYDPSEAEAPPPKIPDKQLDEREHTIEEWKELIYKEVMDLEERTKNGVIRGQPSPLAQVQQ
Text: as §1

KDR = target: T23, KDR (Homo sapiens, UniProt P35968); assay: KinaseProfiler KDR
T23 construct: purchased Millipore, Inc. (KinaseProfiler service)
Text: as §1

Lck = target: T24, Lck (Homo sapiens, UniProt P06239); assay: KinaseProfiler Lck
T24 construct: purchased Millipore, Inc. (KinaseProfiler service)
Text: as §1

MAPKAP-K2 = target: T25, MAPKAP-K2 (Homo sapiens, UniProt P49137); assay: KinaseProfiler MAPKAP-K2
T25 construct: purchased Millipore, Inc. (KinaseProfiler service)
Text: as §1

MSK2 = target: T26, MSK2 (Homo sapiens, UniProt O75676); assay: KinaseProfiler MSK2
T26 construct: purchased Millipore, Inc. (KinaseProfiler service)
T26 sequence (O75676 whole entry): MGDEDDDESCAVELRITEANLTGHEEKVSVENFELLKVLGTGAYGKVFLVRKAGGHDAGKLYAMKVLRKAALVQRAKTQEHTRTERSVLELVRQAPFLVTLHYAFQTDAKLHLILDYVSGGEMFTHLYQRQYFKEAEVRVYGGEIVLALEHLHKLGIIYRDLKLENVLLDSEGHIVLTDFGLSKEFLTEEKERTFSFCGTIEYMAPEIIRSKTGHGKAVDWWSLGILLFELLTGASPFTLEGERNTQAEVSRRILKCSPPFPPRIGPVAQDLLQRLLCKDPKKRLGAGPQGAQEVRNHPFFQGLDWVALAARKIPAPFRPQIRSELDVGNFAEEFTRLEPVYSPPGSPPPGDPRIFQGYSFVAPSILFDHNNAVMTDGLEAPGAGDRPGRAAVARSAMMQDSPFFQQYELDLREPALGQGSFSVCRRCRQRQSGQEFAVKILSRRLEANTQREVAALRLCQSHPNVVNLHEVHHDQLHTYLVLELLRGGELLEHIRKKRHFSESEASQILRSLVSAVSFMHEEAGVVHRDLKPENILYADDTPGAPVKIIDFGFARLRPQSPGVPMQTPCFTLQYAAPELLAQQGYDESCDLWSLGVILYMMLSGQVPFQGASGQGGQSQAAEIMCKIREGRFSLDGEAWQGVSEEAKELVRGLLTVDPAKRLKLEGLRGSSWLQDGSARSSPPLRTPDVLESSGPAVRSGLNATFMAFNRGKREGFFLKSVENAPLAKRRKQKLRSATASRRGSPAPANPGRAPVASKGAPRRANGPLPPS
Text: as §1

MST2 = target: T27, MST2 (Homo sapiens, UniProt Q13188); assay: KinaseProfiler MST2
T27 construct: purchased Millipore, Inc. (KinaseProfiler service)
Text: as §1

NEK2 = target: T28, NEK2 (Homo sapiens, UniProt P51955); assay: KinaseProfiler NEK2
T28 construct: purchased Millipore, Inc. (KinaseProfiler service)
Text: as §1

NEK3 = target: T29, NEK3 (Homo sapiens, UniProt P51956); assay: KinaseProfiler NEK3
T29 construct: purchased Millipore, Inc. (KinaseProfiler service)
Text: as §1

NLK = target: T30, NLK (Homo sapiens, UniProt Q9UBE8); assay: KinaseProfiler NLK
T30 construct: purchased Millipore, Inc. (KinaseProfiler service)
Text: as §1

p38beta = target: T31, p38beta (Homo sapiens, UniProt Q15759); assay: KinaseProfiler p38beta
T31 construct: purchased Millipore, Inc. (KinaseProfiler service)
T31 sequence (Q15759 whole entry): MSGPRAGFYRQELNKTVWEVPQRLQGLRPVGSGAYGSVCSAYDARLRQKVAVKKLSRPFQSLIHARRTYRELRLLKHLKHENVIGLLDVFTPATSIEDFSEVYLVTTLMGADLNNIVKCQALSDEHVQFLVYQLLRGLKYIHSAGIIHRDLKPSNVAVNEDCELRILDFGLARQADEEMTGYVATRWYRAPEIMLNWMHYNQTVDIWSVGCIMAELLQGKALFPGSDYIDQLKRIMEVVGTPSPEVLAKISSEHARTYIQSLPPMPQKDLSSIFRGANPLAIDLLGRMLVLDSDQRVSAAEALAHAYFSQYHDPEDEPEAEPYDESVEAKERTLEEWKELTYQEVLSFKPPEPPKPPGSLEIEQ
Text: as §1

PDGFRalpha = target: T32, PDGFRalpha (Homo sapiens, UniProt P16234); assay: KinaseProfiler PDGFRalpha
T32 construct: purchased Millipore, Inc. (KinaseProfiler service)
Text: as §1

PKCbetaII = target: T33, PKCbetaII (Homo sapiens, UniProt P05771); assay: KinaseProfiler PKCbetaII
T33 construct: purchased Millipore, Inc. (KinaseProfiler service)
T33 sequence (P05771 1-673 isoform P05771-2): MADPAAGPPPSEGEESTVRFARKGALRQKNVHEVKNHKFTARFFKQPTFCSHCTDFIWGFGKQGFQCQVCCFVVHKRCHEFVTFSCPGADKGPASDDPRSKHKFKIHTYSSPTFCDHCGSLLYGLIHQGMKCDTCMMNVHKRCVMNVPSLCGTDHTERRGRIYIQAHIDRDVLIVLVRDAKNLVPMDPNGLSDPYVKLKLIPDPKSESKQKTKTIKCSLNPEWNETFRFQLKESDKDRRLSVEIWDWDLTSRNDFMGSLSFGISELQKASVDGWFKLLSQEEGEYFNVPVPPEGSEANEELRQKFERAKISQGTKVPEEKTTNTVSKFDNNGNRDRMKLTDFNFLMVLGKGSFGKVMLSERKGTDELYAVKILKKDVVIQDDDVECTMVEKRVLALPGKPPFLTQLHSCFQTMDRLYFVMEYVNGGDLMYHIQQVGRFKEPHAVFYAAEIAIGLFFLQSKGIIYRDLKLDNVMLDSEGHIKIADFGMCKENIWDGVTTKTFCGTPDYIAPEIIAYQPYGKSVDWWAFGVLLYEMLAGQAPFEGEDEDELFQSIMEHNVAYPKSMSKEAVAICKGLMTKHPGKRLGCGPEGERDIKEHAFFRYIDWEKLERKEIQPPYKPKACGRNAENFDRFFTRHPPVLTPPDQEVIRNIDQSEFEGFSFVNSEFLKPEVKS
Text: as §1

PKCgamma = target: T34, PKCgamma (Homo sapiens, UniProt P05129); assay: KinaseProfiler PKCgamma
T34 construct: purchased Millipore, Inc. (KinaseProfiler service)
Text: as §1

PKCtheta = target: T35, PKCtheta (Homo sapiens, UniProt Q04759); assay: KinaseProfiler PKCtheta
T35 construct: purchased Millipore, Inc. (KinaseProfiler service)
Text: as §1

PKCzeta = target: T36, PKCzeta (Homo sapiens, UniProt Q05513); assay: KinaseProfiler PKCzeta
T36 construct: purchased Millipore, Inc. (KinaseProfiler service)
Text: as §1

Plk1 = target: T37, Plk1 (Homo sapiens, UniProt P53350); assay: KinaseProfiler Plk1
T37 construct: purchased Millipore, Inc. (KinaseProfiler service)
T37 sequence (P53350 whole entry): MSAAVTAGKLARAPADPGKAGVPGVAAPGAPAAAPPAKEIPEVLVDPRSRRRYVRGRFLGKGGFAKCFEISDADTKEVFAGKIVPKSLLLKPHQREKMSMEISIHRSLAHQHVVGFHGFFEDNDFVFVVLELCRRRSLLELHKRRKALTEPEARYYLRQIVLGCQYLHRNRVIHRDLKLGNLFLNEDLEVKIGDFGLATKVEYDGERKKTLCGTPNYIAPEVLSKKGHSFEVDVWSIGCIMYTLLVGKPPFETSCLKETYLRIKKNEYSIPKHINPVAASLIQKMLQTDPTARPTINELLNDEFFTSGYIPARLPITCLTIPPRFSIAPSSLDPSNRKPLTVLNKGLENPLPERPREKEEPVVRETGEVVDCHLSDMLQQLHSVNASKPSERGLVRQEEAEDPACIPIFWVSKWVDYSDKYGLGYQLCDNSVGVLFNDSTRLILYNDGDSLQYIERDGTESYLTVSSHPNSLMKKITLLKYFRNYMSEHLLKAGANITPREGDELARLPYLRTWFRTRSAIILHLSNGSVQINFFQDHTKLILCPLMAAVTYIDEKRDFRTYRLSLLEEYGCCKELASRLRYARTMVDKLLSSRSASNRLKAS
Text: as §1

PRK2 = target: T38, PRK2 (Homo sapiens, UniProt Q16513); assay: KinaseProfiler PRK2
T38 construct: purchased Millipore, Inc. (KinaseProfiler service)
Text: as §1

PTK5 = target: T39, PTK5 (Homo sapiens, UniProt P42685); assay: KinaseProfiler PTK5
T39 construct: purchased Millipore, Inc. (KinaseProfiler service)
Text: as §1

RIPK2 = target: T40, RIPK2 (Homo sapiens, UniProt O43353); assay: KinaseProfiler RIPK2
T40 construct: purchased Millipore, Inc. (KinaseProfiler service)
Text: as §1

SRPK1 = target: T41, SRPK1 (Homo sapiens, UniProt Q96SB4); assay: KinaseProfiler SRPK1
T41 construct: purchased Millipore, Inc. (KinaseProfiler service)
Text: as §1

Txk = target: T42, Txk (Homo sapiens, UniProt P42681); assay: KinaseProfiler Txk
T42 construct: purchased Millipore, Inc. (KinaseProfiler service)
Text: as §1

WNK2 = target: T43, WNK2 (Homo sapiens, UniProt Q9Y3S1); assay: KinaseProfiler WNK2
T43 construct: purchased Millipore, Inc. (KinaseProfiler service)
Text: as §1

## Cc1c(-c2cnn(C)c2)nn(-c2ccccc2)c1NC(=O)Nc1cc(C(F)(F)F)nn1-c1ccccc1 [Example 3, 1-(1′,4-dimethyl-1-phenyl-1H,1′H-[3,4′-bipyrazol]-5-yl)-3-(1-phenyl-3-(trifluoromethyl)-1H-pyrazol-5-yl)urea]
ARK5
  Avg POC: 92.5 POC
BLK_m
  Avg POC: 108.5 POC
Bmx
  Avg POC: 114.5 POC
CDK5/p25
  Avg POC: 108.5 POC
CHK2
  Avg POC: 126.5 POC
CK1delta
  Avg POC: 141 POC
CK1gamma1
  Avg POC: 112 POC
CLK3
  Avg POC: 104 POC
c-RAF
  Avg POC: 94.5 POC
DYRK2
  Avg POC: 92.5 POC
EphA1
  Avg POC: 93.5 POC
EphA2
  Avg POC: 120 POC
Fer
  Avg POC: 92.5 POC
Fes
  Avg POC: 123 POC
FGFR4
  Avg POC: 174.5 POC
Fgr
  Avg POC: 118 POC
GRK5
  Avg POC: 84 POC
GSK3alpha
  Avg POC: 170 POC
HIPK3
  Avg POC: 109.5 POC
IR
  Avg POC: 90 POC
IRR
  Avg POC: 99.5 POC
JNK1alpha1
  Avg POC: 111.5 POC
KDR
  Avg POC: 115.5 POC
Lck
  Avg POC: 93 POC
MAPKAP-K2
  Avg POC: 142.5 POC
MSK2
  Avg POC: 119.5 POC
MST2
  Avg POC: 102.5 POC
NEK2
  Avg POC: 125.5 POC
NEK3
  Avg POC: 105.5 POC
NLK
  Avg POC: 116.5 POC
p38beta
  Avg POC: 102 POC
PDGFRalpha
  Avg POC: 106 POC
PKCbetaII
  Avg POC: 96.5 POC
PKCgamma
  Avg POC: 100 POC
PKCtheta
  Avg POC: 113.5 POC
PKCzeta
  Avg POC: 103 POC
Plk1
  Avg POC: 95 POC
PRK2
  Avg POC: 106.5 POC
PTK5
  Avg POC: 102 POC
RIPK2
  Avg POC: 96.5 POC
SRPK1
  Avg POC: 111 POC
Txk
  Avg POC: 139.5 POC
WNK2
  Avg POC: 120 POC
